Test results from ChEMBL document CHEMBL5325403, “Benzenesulfonyl thiazoloimines as unique multitargeting antibacterial agents towards Enterococcus faecalis” (Eur J Med Chem, 2023).
≈ marks a conversion by molar mass, not a printed value. Calls of active or inactive are those of the source. No cut-off for these calls is given here.

What was measured:
[1] = system: Pseudomonas aeruginosa; test: Antibacterial activity against Pseudomonas aeruginosa ATCC 27853 assessed as inhibition of bacterial growth by continuous dilution method; type: functional
[2] = system: Escherichia coli; test: Antibacterial activity against Escherichia coli ATCC 25922 assessed as inhibition of bacterial growth by continuous dilution method; type: functional
[3] = system: Enterococcus faecalis; test: Antibacterial activity against Enterococcus faecalis p1-2007225053 assessed as inhibition of bacterial growth by continuous dilution method; type: functional
[4] = system: Staphylococcus aureus; test: Antibacterial activity against Staphylococcus aureus ATCC 29213 assessed as inhibition of bacterial growth by continuous dilution method; type: functional
[5] = system: Enterococcus faecalis; test: Antibacterial activity against Enterococcus faecalis assessed as inhibition of bacterial growth by continuous dilution method; type: functional
[6] = system: Enterococcus faecalis; test: Antibacterial activity against Enterococcus faecalis p1-2007226001 assessed as inhibition of bacterial growth by continuous dilution method; type: functional
[7] = system: Klebsiella pneumoniae; test: Antibacterial activity against Klebsiella pneumoniae assessed as inhibition of bacterial growth by continuous dilution method; type: functional
[8] = system: Staphylococcus aureus; test: Antibacterial activity against Staphylococcus aureus ATCC 25923 assessed as inhibition of bacterial growth by continuous dilution method; type: functional
[9] = system: Staphylococcus aureus; test: Antibacterial activity against methicillin-resistant Staphylococcus aureus N315 assessed as inhibition of bacterial growth by continuous dilution method; type: functional
[10] = system: Acinetobacter baumannii; test: Antibacterial activity against Acinetobacter baumannii assessed as inhibition of bacterial growth by continuous dilution method; type: functional
[11] = system: Staphylococcus aureus; test: Antibacterial activity against Staphylococcus aureus assessed as inhibition of bacterial growth by continuous dilution method; type: functional
[12] = system: Escherichia coli; test: Antibacterial activity against Escherichia coli assessed as inhibition of bacterial growth by continuous dilution method; type: functional
[13] = system: Pseudomonas aeruginosa; test: Antibacterial activity against Pseudomonas aeruginosa assessed as inhibition of bacterial growth by continuous dilution method; type: functional
[14] = system: Enterococcus faecalis; test: Antibacterial activity against Enterococcus faecalis assessed as reduction in bacterial growth measured after 16 passages by continuous dilution method; type: functional, organism-based
[15] = system: Enterococcus faecalis; test: Induction of oxidative stress in Enterococcus faecalis assessed as decrease in GSH activity at 0.5 to 16 times of MIC by Ellman's method; type: functional, organism-based
[16] = Hemolytic activity in human RBC assessed as hemolysis at 512 times of MIC measured after 1 hr; type: toxicity, cell-based, Erythrocyte; conditions: red blood cells (erythrocytes), read-out: Activity
[17] = system: Enterococcus faecalis; test: Antibacterial activity against Enterococcus faecalis assessed as log reduction in bacterial growth measured after 6 hrs by continuous dilution method; type: functional
[18] = system: Calf thymus DNA; test: Binding affinity to calf thymus DNA assessed as compound DNA complex formation by UV-Vis spectrophotometric analysis; type: nucleic-acid assay; conditions: Bos taurus
[19] = system: Enterococcus faecalis; test: Antibiofilm activity against Enterococcus faecalis assessed as inhibition of biofilm formation at 0.5 to 6 times of MIC by crystal violet staining based analysis; type: functional, organism-based
[20] = system: Calf thymus DNA; test: Binding affinity to calf thymus DNA assessed as reduction in NR-DNA complex formation by measuring fluorescence intensity by competitive binding assay; type: nucleic-acid assay; conditions: Bos taurus
[21] = Cytotoxicity against human FHC cells assessed as cell viability rate at 20 ug/ml; type: toxicity, cell-based; conditions: at 20 µg/mL, read-out: Activity
[22] = system: Enterococcus faecalis; test: Antibiofilm activity against Enterococcus faecalis assessed as inhibition of biofilm formation at 6 times of MIC by crystal violet staining based analysis; type: functional; parameters: scale not given: the % may be the effect or the level left
[23] = system: Calf thymus DNA; test: Binding affinity to calf thymus DNA assessed as compound DNA complex formation by measuring fluorescence intensity by acridine orange dye based competitive binding assay; type: nucleic-acid assay; conditions: Bos taurus
[24] = system: Enterococcus faecalis; test: Effect on cell morphology in Enterococcus faecalis assessed as cell deformation at 2 times of MIC incubated for 4 hrs by scanning electron microscopic analysis; type: functional, organism-based
[25] = system: Enterococcus faecalis; test: Antibacterial activity against Enterococcus faecalis assessed as reduction in metabolic activity at 0.5 to 8 times of MIC by alamar blue staining based assay; type: functional, organism-based
[26] = system: Enterococcus faecalis; test: Effect on cell morphology in Enterococcus faecalis assessed as cell shrank at 2 times of MIC incubated for 4 hrs by scanning electron microscopic analysis; type: functional, organism-based
[27] = Cytotoxicity against human NOK-SI cells assessed as cell viability rate at 20 ug/ml; type: toxicity, cell-based; conditions: at 20 µg/mL, read-out: Activity
[28] = system: Cell membrane; test: Induction of inner membrane permeabilization in Enterococcus faecalis at 4 times of MIC measured at 25 mins by PI staining under fluorescence microscopic analysis
[29] = system: Enterococcus faecalis; test: Induction of intracellular ROS generation in Enterococcus faecalis by DCFH-DA staining based fluorescence microscopic analysis; type: functional, organism-based
[30] = system: Cell membrane; test: Disruption of cell membrane integrity in Enterococcus faecalis assessed as increase in protein leakage by Bradford assay
[31] = system: Cell membrane; test: Induction of cytoplasmic membrane depolarization in Enterococcus faecalis at 4 times of MIC by DiSC35 dye-based fluorescence assay; conditions: time <= 80.0 min, TDE = time-dependent effect

Compound: CCn1cc(C(=O)O)c(=O)c2cc(F)c(N3CCNCC3)cc21 [NORFLOXACIN]
- MIC [1]: 2 µg/mL (≈ 6.26 µM)
- MIC [2]: 4 µg/mL (≈ 12.5 µM)
- MIC [3]: 8 µg/mL (≈ 25.1 µM)
- MIC [4]: 2 µg/mL (≈ 6.26 µM)
- MIC [5]: 8 µg/mL (≈ 25.1 µM)
- MIC [6]: 4 µg/mL (≈ 12.5 µM)
- MIC [7]: 8 µg/mL (≈ 25.1 µM)
- MIC [8]: 4 µg/mL (≈ 12.5 µM)
- MIC [9]: 8 µg/mL (≈ 25.1 µM)
- MIC [10]: 4 µg/mL (≈ 12.5 µM)
- MIC [11]: 4 µg/mL (≈ 12.5 µM)
- MIC [12]: 16 µg/mL (≈ 50.1 µM)
- MIC [13]: 2 µg/mL (≈ 6.26 µM)

Compound: CC(=O)Nc1ccc(S(=O)(=O)C/C(=N/NC(=O)c2ccccn2)c2nccs2)cc1
- MIC [1]: 32 µg/mL (≈ 72.2 µM)
- MIC [2]: 64 µg/mL (≈ 144 µM)
- Activity [14]: Active
- Activity [15]: Active
- hemolysis at 1 h, 512 times of MIC [16]: < 3%
- MIC [3]: 2 µg/mL (≈ 4.51 µM)
- MIC [4]: 256 µg/mL (≈ 577 µM)
- MIC [5]: 1 µg/mL (≈ 2.25 µM)
- MIC [6]: 4 µg/mL (≈ 9.02 µM)
- MIC [7]: 64 µg/mL (≈ 144 µM)
- Activity [17]: Dose-Dependent Effect
- log(activity) [17]: 3
- MIC [8]: 4 µg/mL (≈ 9.02 µM)
- MIC [9]: 64 µg/mL (≈ 144 µM)
- MIC [10]: 32 µg/mL (≈ 72.2 µM)
- Activity [18]: Active
- Activity [19]: Active
- Activity [20]: Active
- viability at 20 ug/ml [21]: 45%
- Activity [22]: 35%
- Activity [23]: Active
- Activity [24]: Active
- Activity [25]: Active
- MIC [11]: 4 µg/mL (≈ 9.02 µM)
- Activity [26]: Active
- viability at 20 ug/ml [27]: 65%
- Activity [28]: Active
- MIC [12]: 32 µg/mL (≈ 72.2 µM)
- MIC [13]: 128 µg/mL (≈ 289 µM)
- Activity [29]: Dose-Dependent Effect
- Activity [30]: Dose-Dependent Effect
- Activity [31]: Tde

Compound: CCCCO/N=C(/CS(=O)(=O)c1ccc(N)cc1)c1nccs1
- MIC [1]: 32 µg/mL (≈ 90.5 µM)
- MIC [2]: 32 µg/mL (≈ 90.5 µM)
- MIC [4]: 64 µg/mL (≈ 181 µM)
- MIC [5]: 16 µg/mL (≈ 45.3 µM)
- MIC [7]: 16 µg/mL (≈ 45.3 µM)
- MIC [8]: 32 µg/mL (≈ 90.5 µM)
- MIC [9]: 64 µg/mL (≈ 181 µM)
- MIC [10]: 64 µg/mL (≈ 181 µM)
- MIC [11]: 32 µg/mL (≈ 90.5 µM)
- MIC [12]: 32 µg/mL (≈ 90.5 µM)
- MIC [13]: 32 µg/mL (≈ 90.5 µM)

Compound: CCCCCCCCO/N=C(/CS(=O)(=O)c1ccc(N)cc1)c1nccs1
- MIC [1]: 16 µg/mL (≈ 39.1 µM)
- MIC [2]: 32 µg/mL (≈ 78.1 µM)
- MIC [4]: 64 µg/mL (≈ 156 µM)
- MIC [5]: 32 µg/mL (≈ 78.1 µM)
- MIC [7]: 32 µg/mL (≈ 78.1 µM)
- MIC [8]: 32 µg/mL (≈ 78.1 µM)
- MIC [9]: 64 µg/mL (≈ 156 µM)
- MIC [10]: 64 µg/mL (≈ 156 µM)
- MIC [11]: 128 µg/mL (≈ 313 µM)
- MIC [12]: 32 µg/mL (≈ 78.1 µM)
- MIC [13]: 64 µg/mL (≈ 156 µM)

Compound: Nc1ccc(S(=O)(=O)C/C(=N/O)c2nccs2)cc1
- MIC [1]: 64 µg/mL (≈ 215 µM)
- MIC [2]: 16 µg/mL (≈ 53.8 µM)
- MIC [4]: 64 µg/mL (≈ 215 µM)
- MIC [5]: 128 µg/mL (≈ 430 µM)
- MIC [7]: 64 µg/mL (≈ 215 µM)
- MIC [8]: 64 µg/mL (≈ 215 µM)
- MIC [9]: 128 µg/mL (≈ 430 µM)
- MIC [10]: 256 µg/mL (≈ 861 µM)
- MIC [11]: 128 µg/mL (≈ 430 µM)
- MIC [12]: 32 µg/mL (≈ 108 µM)
- MIC [13]: 128 µg/mL (≈ 430 µM)

Compound: CCO/N=C(/CS(=O)(=O)c1ccc(NC(C)=O)cc1)c1nccs1
- MIC [1]: 64 µg/mL (≈ 174 µM)
- MIC [2]: 16 µg/mL (≈ 43.5 µM)
- MIC [4]: 64 µg/mL (≈ 174 µM)
- MIC [5]: 32 µg/mL (≈ 87.1 µM)
- MIC [7]: 64 µg/mL (≈ 174 µM)
- MIC [8]: 128 µg/mL (≈ 348 µM)
- MIC [9]: 64 µg/mL (≈ 174 µM)
- MIC [10]: 256 µg/mL (≈ 697 µM)
- MIC [11]: 128 µg/mL (≈ 348 µM)
- MIC [12]: 32 µg/mL (≈ 87.1 µM)
- MIC [13]: 128 µg/mL (≈ 348 µM)

Compound: CCCCCCCCO/N=C(/CS(=O)(=O)c1ccc(NC(C)=O)cc1)c1nccs1
- MIC [1]: 64 µg/mL (≈ 142 µM)
- MIC [2]: 16 µg/mL (≈ 35.4 µM)
- MIC [4]: 64 µg/mL (≈ 142 µM)
- MIC [5]: 64 µg/mL (≈ 142 µM)
- MIC [7]: 64 µg/mL (≈ 142 µM)
- MIC [8]: 64 µg/mL (≈ 142 µM)
- MIC [9]: 64 µg/mL (≈ 142 µM)
- MIC [10]: 128 µg/mL (≈ 283 µM)
- MIC [11]: 128 µg/mL (≈ 283 µM)
- MIC [12]: 32 µg/mL (≈ 70.9 µM)
- MIC [13]: 64 µg/mL (≈ 142 µM)
